Legend:
hES cells = assay: Low-density real-time cell index monitoring (RT-CES impedance reader); format: cell-based, human; settings: for time after plating at which cell index rises above background / expansion detectable: 50 μM each factor; for time after plating at which cell index rises above background / expansion detectable / lowest concentration that elicited an effect: StemPro hESC SFM; for lowest concentration that elicited an effect: titration
Experimental: FIG. 4. Titration of NE and ACh using the RT-CES impedance reader. 1000 hES cells/well were plated in StemPro® hESC SFM containing the indicated concentrations of small molecules (in μM). In such an assay, the timing of when the cell index rises is associated with the proportion of cells that survive and expand at low density.
FIG. 5. Combined effects of small molecules compound combinations in low cell density assays. (A) 1000 hES cells/well were plated in StemPro® hESC SFM containing small molecules at 50 μM (NE, ACh, Adenosine, GABA) or 10 μM (Y27632). The assay was carried out over 5 days using the RT-CES system.
FIG. 6. […] 1000 hES cells/well were plated in StemPro® hESC SFM containing Heregulin, IGF1 and Activin (HIA) and the indicated small molecules. […] Compounds were tested at 10 μM. The DMSO trace is an average of 8 wells. […] Compounds were tested at the indicated concentrations.
FIG. 7. […] 1000 hES cells/well were plated in StemPro® hESC SFM containing the indicated combinations of growth factors and small molecules. Heregulin (H), LR3-IGF1 (I), Activin (A).
FIG. 9. Low-density RT-CES assays of combinations of growth factors and neurotransmitters. 1000 hES cells/well were plated in StemPro® hESC SFM containing the indicated combinations of growth factors and small molecules. Heregulin (H), LR3-IGF1 (I), Activin (A). Small molecules were tested at 50 μM.
Furthermore, pluripotent cells can also be grown in 96-well culture devices that provide real-time measurements of impedance, which can be used to measure cell proliferation and viability using the RT-CES™ methods from ACEA Biosciences, Inc. (www (dot) aceabio (dot) com). Such an approach would enable a label-free identification and quantification of subtle or immediate effects on differentiable cells, as well as measurements of proliferation, apoptosis and changes to morphology, in real time.
To examine more closely the potency of individual neurotransmitters and determine if synergies exist between different factors, low-density assays were performed in real time using an impedance reader. The ACEA biosciences RT-CES system uses 96-well trays that contain embedded microsensors to monitor changes in electrical impedance, which is translated into a measure of cell index. Any overt alteration within a cell culture can be detected, including but not limited to cell proliferation, migration, cell spreading, apoptosis, differentiation and the like. […] Once an undifferentiated culture becomes confluent the cell index remains high, but tends to go down and up (scallop) between daily feedings. Conversely, differentiation is typically indicated by the appearance of distinctive patterns, such as peaks and troughs in the cell index, likely indicative of an epithelial-to-mesenchymal transition, flattening, cell migration, apoptosis or similar differentiation and growth related changes.
Human ES cells were plated at low density, 1000 cells/well, in RT-CES trays and cultured for 10 days (FIG. 4). Cells were plated directly in StemPro® hESC SFM containing carrier control (DMSO), NE, or ACh.

CyT49 cells = assay: Suspension aggregate culture, cell counts and aggregate diameters; format: cell-based, human; settings: for serial passages maintained in suspension with undifferentiated morphology: suspension culture, 50 μM
Experimental: FIG. 10. Effects of NE and ACh in suspension culture of hES cell. (A) 5×10^6 CyT49 cells were seeded in 5 ml StemPro® hESC SFM containing heregulin, LR3-IGF1, Activin and the indicated neurotransmitters at 50 μM in low-attachment 6-well trays and placed at 100 rpm. Undifferentiated suspension aggregates were imaged on day 4. (B) 24 hours after seeding, two wells from each condition were harvested and counted to determine the number of viable cells. (C) Cell counts of each condition when the cultures were split on day 4. (D) The images in (A) were used to determine aggregate diameters using the ImagePro software measurement tool. Average diameters and standard deviations from 50-100 aggregates from each condition are shown. (E) Passage 1 cell counting data. 5×10^6 CyT49 hES cells from p0 cells in (A) were seeded into the same conditions. The aggregates in the condition containing Y27632 were larger and had to be passaged 3 days after seeding, before the centers of the largest aggregates became necrotic. Conversely, the other conditions could be cultured for 6 days before passaging, resulting in higher cell counts.
FIG. 11. Suspension hES cell cultured with NE, […] remain undifferentiated. CyT49 cells were grown as suspension aggregates in the presence of NE, […] for 16 passages without differentiating morphologically. After p10, some cells were re-plated to adherent culture and examined by karyotyping and immunofluorescent staining for OCT4 and Tra-1-61. All cultures remained undifferentiated and expressed these pluripotency markers uniformly. (SP) StemPro® SFM HIA, NE (+NE at 50 μM), ACh (+ACh at 50 μM), NE/ACh (+NE/ACh at 50 μM). Karyotype data is shown to the right. […] Cultures containing ACh were aneuploid.
Small molecule ligands that support survival or self-renewal at low cell densities could also be expected to have beneficial effects in other culture formats. Applicants have previously developed a suspension culture system for hES cells that enables serial propagation of cells and effective expansion of cultures. Human ES cells, at least BG02 and CyT49 cells, have been maintained in suspension for greater than 10 passages without differentiation. The basis of the technique is to dissociate cultures to single cells with reagents that preserve high viability, such as Accutase™, TrypLE or cell dispersal buffer, then aggregate defined concentrations of cells in defined medium in rotational culture. These methods are described in more detail in International Application PCT/US2008/082356, entitled STEM CELL AGGREGATE SUSPENSION COMPOSITIONS AND METHODS OF DIFFERENTIATION THEREOF, filed Nov. 4, 2008; and International Application PCT/US2007/062755, entitled COMPOSITIONS AND METHODS FOR CULTURING DI[…], filed Feb. 23, 2007, which are herein incorporated by reference in their entireties. Self-aggregation of hES cells occurs in the absence of added extracellular matrix (ECM) or ECM-like proteins and is presumed to be driven in part by homotypic interaction of E-cadherin. The aggregates that are formed expand over 3-4 days and are kept apart from each other by the shear forces generated by rotational culture. Cells are blocked from differentiating by the self-renewal signaling provided by the defined medium and retain their pluripotent characteristics: marker expression, normal karyotype, and differentiation potential in vitro and in teratomas. […]

Row | SMILES | time after plating at which cell index rises above background / expansion detectable (hES cells; 1000 cells/well) | lowest concentration that elicited an effect (hES cells; 1000 cells/well) [µM] | serial passages maintained in suspension with undifferentiated morphology (CyT49 cells) [serial passages] | effect on low-density survival/proliferation (hES cells; 1 μM, 1000 cells/well, 10 days) | survival and expansion at low density, single factors and two-factor combinations (hES cells; 50 μM (NE, ACh, Adenosine, GABA) or 10 μM (Y27632), 1000 cells/well, 5 days) | time to apparent confluence (hES cells; 70 μM, 1000 cells/well) [days] | time to apparent confluence (hES cells; 100 μM, 1000 cells/well) [days] | time at which increases in cell index were first detected (hES cells; 5, 10 and 50 μM, 1000 cells/well) [days] | survival/expansion on addition of neurotransmitter (hES cells; HAI or HI background, 1000 cells/well) | survival/expansion (hES cells; StemPro hESC SFM HI background) | rises in impedance / survival and expansion with neurotransmitters (hES cells; small molecules 50 μM, 1000 cells/well, growth factor combinations) | aggregate size on day 4 (CyT49 cells; suspension, StemPro hESC SFM HIA, neurotransmitters 50 μM)
1 | CC(=O)OCC[N+](C)(C)C [ACh, acetylcholine] | about 3 days | 5 | 12 |  |  |  |  |  |  |  |  | 
2 | NCC(O)c1ccc(O)c(O)c1 (racemic) [NE, (±)-Norepinephrine (+)-bitartrate] | about 3 days | 5 | 12 | did not appear to affect low-density survival/proliferation | effective survival and expansion | ~9 | ~10 | ~6.5 | substantially improved survival/expansion | maximal survival/expansion | detected much earlier | smaller aggregates

From patent US8685726B2, “Small molecules supporting pluripotent cell growth and methods thereof” (Viacyte, Inc., priority 2009, dated 2014)
